The text below walks through data of US20110178165A1, “TETRAHYDROFURANYL SULFONAMIDES AND PHARMACEUTICAL COMPOSITIONS THEREOF” (Pfizer Inc., priority 2008, published 2011).

pEC50: −log10 of the molar value. Some results are limits rather than exact numbers.

For the test, the system named is AMPA receptors. Nature of the test: AMPA ES cell FLIPR screen (AMPA potentiator assay). The conditions noted are these: murine ES cell-derived neurons, FLIPR Fluo-4 calcium, 32 uM AMPA challenge; * = geometric mean of 2 EC50 determinations. The format is cell-based. Here is the method: The murine ES cell line used was E14-Sx1-16C, which has a targeted mutation in the Sox1 gene, a neuroectodermal marker, that offers G418 resistance when the Sox1 gene is expressed (Stem Cell Sciences). ES cells were maintained undifferentiated as previously described (Roach). […] ES cells were plated on gelatin-coated dishes (BD Biosciences), the media was changed daily and the cells were dissociated with 0.05% Trypsin EDTA (Invitrogen) every other day.
Embryoid Body Formation: Prior to embryoid body (EB) formation the ES cells were weaned from FBS onto Knockout Serum Replacement (KSR) (Invitrogen). To form EBs, ES cells were dissociated into a single cell suspension, then 3×10^6 cells were plated in bacteriology dishes (Nunc 4014) and grown as a suspension culture in NeuroEB-I medium that consisted of Knockout™ D-MEM (Invitrogen), supplemented with 10% KSR (Invitrogen), 0.2 mM L-Glutamine (Invitrogen), 0.1 mM MEM non-essential amino acids (Invitrogen), 30 μg/ml Gentamicin (Invitrogen), 1000 u/ml ESGRO (Chemicon), 0.1 mM 2-Mercaptoethanl (Sigma) and 150 ng/ml Transferrin (Invitrogen). The plates were put on a Stovall Belly Button shaker in an atmospheric oxygen incubator. The media was changed on day 2 of EB formation with NeuroEB-I and on day 4 with NeuroEB-II (NeuroEB-I plus 1 μg/ml mNoggin [R&D Systems]).
Neuronal Precursor Selection and Expansion: On day 5 of EB formation, EBs were dissociated with 0.05% Trypsin EDTA, and 4×10^6 cells/100 mm dish were plated on Laminin coated tissue culture dishes in Neuroll-G418 medium that consisted of a base medium of a 1:1 mixture of D-MEM/F12 supplemented with N2 supplements and NeuroBasal Medium supplemented with B27 supplement and 0.1 mM L-Glutamine (all from Invitrogen). The base medium was then supplemented with 10 ng/ml bFGF (Invitrogen), 1 μg/ml mNoggin, 500 ng/ml SHH—N, 100 ng/ml FGF-8b (R&D Systems), 1 μg/ml Laminin and 200 μg/ml G418 (Invitrogen) for selection of neuronal precursors expressing Sox-1. The plates were put in an incubator that contained 2% Oxygen and were maintained in these conditions. During the 6-day selection period, the Neuroll media was changed daily. On day 6, the surviving neuronal precursor foci were dissociated with 0.05% Trypsin EDTA and the cells were plated at a density of 1.5×10^6 cells/100 mm Laminin coated dish in Neuroll-G418 medium. The cells were dissociated every other day for expansion, and prepared for Cryopreservation at passage 3 or 4. The crypreservation medium contained 50% KSR, 10% Dimethyl Sulfoxide (DMSO) (Sigma) and 40% Neurol-G418I medium. Neuronal precursors were cryopreserved at a concentration of 4×10^6 cells/ml and 1 ml/cryovial in a controlled rate freezer overnight then transferred to an ultra-low freezer or liquid nitrogen for long-term storage. […]
Take `CC(C)S(=O)(=O)N[C@@H]1COC[C@@]1(O)c1ccc(-c2ccccc2)cc1` (stereo in doubt) [Example 4, N-[(3R,4R)-4-biphenyl-4-yl-4-hydroxytetrahydrofuran-3-yl]propane-2-sulfonamide]: the pEC50 was less than 4.50.
Consider `CC(C)S(=O)(=O)N[C@H]1COC[C@]1(O)c1ccc(-c2ccc(C#N)s2)cc1` [Example 1, N-{(3S,4S)-4-[4-(5-cyano-2-thienyl)phenyl]-4-hydroxytetrahydrofuran-3-yl}propane-2-sulfonamide], for which the pEC50 was 5.23.
On to `CC(C)S(=O)(=O)N[C@@H]1COC[C@@]1(O)c1ccc(-c2ccc(C#N)s2)cc1` [Example 2, N-{(3R,4R)-4-[4-(5-cyano-2-thienyl)phenyl]-4-hydroxytetrahydrofuran-3-yl}propane-2-sulfonamide], for which the pEC50 was less than 4.50.
In the case of `CC(C)S(=O)(=O)N[C@H]1COC[C@]1(O)c1ccc(-c2ccccc2)cc1` [Example 3, N-[(3S,4S)-4-biphenyl-4-yl-4-hydroxytetrahydrofuran-3-yl]propane-2-sulfonamide] it was 5.92.
